In patent publication US20100297020A1, “PHOSPHORYLATED AND PHOSPHONATED PYRONE ANALOGS FOR THERAPEUTIC TREATMENT” (Limerick Biopharma, Inc., priority 2008, published 2010):

Legend:
ZDF rats = experiment: Pancreas histopathology, insulin staining and TUNEL in ZDF rats; assay type: in vivo
Excerpt: Pancreas samples from Example 26 are stored in 10% NBF and used in this study. All tissue samples were processed through graded alcohols, cleared in xylene and infiltrated and embedded into paraffin. For the pancreas four 4 micron sections were cut, one was stained with Hematoxylin and Eosin for histopathology, two were immunohistochemically stained with an antibody to insulin to determine beta cell mass and one was stained for apoptosis with the tunel technique.
The insulin staining procedure was performed as follows: Endogenous peroxidase activity was inhibited by incubation in 3% hydrogen peroxide. Non-specific staining was blocked with DAKO Protein Block Serum-Free (Dako, Carpinteria, Calif.). Insulin positive cells were immunohistochemically stained with a polyclonal guinea pig anti-swine insulin antibody at room temperature for 30 minutes (Dako, Carpinteria, Calif.). After incubation with primary antibody, the tissue sections were sequentially incubated with Envision+ HRP Rabbit (Dako, Carpinteria, Calif.). Staining was developed with Liquid DAB+ (Dako, Carpinteria, Calif.) and counterstained with hematoxylin.
Pancreas samples were stained for apoptosis as follows: 4 micron sections were cut and stained for TUNEL utilizing the following kit In Situ Cell Death Detection Kit, AP (Roche Applied Science, catalog 11 684 809 910).

male ZDF rats = experiment: 4 week study in ZDF rats (compound 2, compound 3); assay type: in vivo
Excerpt: Seven week old male ZDF rats are used for the study.
Experimental Design: This study is a 4 week study Using 32 7-week old male ZDF rats, divided into 4 treatment arms (8 rats/arm).

[1] = system: rats treated with tacrolimus; experiment: Renal pathology in rats co-administered with tacrolimus; assay type: in vivo; conditions: tacrolimus 0.5 mg/kg with vehicle or with Compound 2 at 11, 28 and 114 mg/kg, 25 days
Method: Tissue is removed from the kidney of rats treated with tacrolimus (Prograf®) at 0.5 mg/kg and inert vehicle, and from rats treated with tacrolimus (Prograf®) at 0.5 mg/kg and quercetin-3′-O-methylphosphonate (Compound 2) at 11 mg/kg, 28 mg/kg, and at 114 mg/kg for 25 days. […] The tissue from rats treated with Compound 2 and tacrolimus show no vacuoles.

AdenosineA1 = molecular target: T1, AdenosineA1 (Homo sapiens, UniProt P30542); experiment: AdenosineA1 GTPγS functional assay; assay type: biochemical; conditions: 10 μM; compound may be / can be tested
T1 sequence (P30542 1-326): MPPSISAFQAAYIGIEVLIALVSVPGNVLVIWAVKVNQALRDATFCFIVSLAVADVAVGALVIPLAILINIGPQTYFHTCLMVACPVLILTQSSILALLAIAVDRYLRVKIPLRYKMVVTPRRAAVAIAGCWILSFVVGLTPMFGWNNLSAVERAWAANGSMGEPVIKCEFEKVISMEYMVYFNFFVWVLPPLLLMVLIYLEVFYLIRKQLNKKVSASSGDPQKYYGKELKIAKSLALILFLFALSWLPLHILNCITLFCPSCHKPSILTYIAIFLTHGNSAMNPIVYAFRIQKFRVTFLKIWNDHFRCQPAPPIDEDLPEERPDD
Method: The compound is additionally tested in AdenosineA1, AdrenergicA2A, DopamineD25, Histamine H1-, and μ-Opiate GTPγS functional assays using a concentration of 10 μM.
The compound may be additionally tested in AdenosineA1, AdrenergicA2A, DopamineD25, Histamine H1-, and μ-Opiate GTPγS functional assays using a concentration of 10 μM.
The compound can be additionally tested in AdenosineA1, AdrenergicA2A, DopamineD25, Histamine H1-, and μ-Opiate GTPγS functional assays using a concentration of 10 μM.

[2] = system: rats treated with tacrolimus; experiment: Blood glucose in rats co-administered with tacrolimus; assay type: in vivo; conditions: tacrolimus 0.5 mg/kg i.p. day 1-25; Compound 2 114 mg/kg i.p. day 11-25
[3] = system: BB19 cells, human BCECs (brain capillary endothelial cells); experiment: Cyclosporin uptake assay; assay type: cell-based; conditions: 0.1 μM test compound; 1 hour incubation; 0.1 µM
Method: BB19 cells, human BCECs (brain capillary endothelial cells) immortalized with the E6E7 genes of human papilloma virus, were kindly provided from Jacques G. Prudhomme, Department of Biology, University of California, Riverside, U.S.A. The cells were cultured as monolayer culture in Amniomax™-C100 basal medium (catalog number 17001-157) with Amniomax™-C100 supplement (catalog number 12556-049) (Invitrogen, Basel, CH).
Cells were seeded onto culture surfaces precoated with 10 μg/cm^2 rat tail collagen type I (BD Bioscience, Allschwil, CH) at a density of approximately 50′000 cells/cm^2 and were cultured in an incubator at 37° C. with 5% CO2, 95% fresh air and saturated humidity. For uptake assays, cells were seeded on precoated 96-well plates. Assays were performed at confluency, after 6 days in culture.
BB19 cells were seeded 50′000 cells/cm^2 on 96-well plates (Falcon) and incubated under condition described above for 6 days. Before starting the assay, cells were washed 2 times with pre-warmed Dulbecco's MEM with Glutamax-I (catalog number 61965) (Invitrogen AG, Basel, CH), supplemented with 1% non essential amino acids, 1% sodium pyruvate, 50 μg/ml gentamycin (Invitrogen AG) (DMEM). Cells were then incubated for 15 min at 37° C. and 120 rpm in DMEM with or without the specified concentrations of test compounds under investigation. After this pre-incubation, cells were incubated in DMEM containing [propyl-3H]-dihydro-FK506 (3H-tacrolimus, 1 μCi/ml, 34 nM) and with or without the specified concentrations of test compounds for 1 hour at 37° C. and 120 rpm. During this 1-hour incubation period, influx and efflux of the substrate, ^3H-tacrolimus, occur. After the 1-hour incubation period, assay was terminated by placing the assay plate on ice and washing the cells twice with ice-cold DMEM. Determination of cell associated ^3H-tacrolimus was performed by addition of Insta Gel and scintillation liquid to trypsinized cells followed by analysis on a scintillation counter (Packard TriCarb2000, Can berra Packard S.A.). The results are expressed as: % of control=100×[^3H-tacrolimus conc. with test compound]/[^3H-tacrolimus conc. with vehicle]
The cyclosporin uptake assay was performed similarly as described above for tacrolimus uptake assay except that ^3H-cyclosporin was used in place of ^3H-tacrolimus.

[4] = Stability in water at about pH 8; conditions: water at about pH 8, 24 hours, ambient temperature
Method: Quercetin-3′-O-phosphate is dissolved in water at about pH 8.
Fisetin-3′-O-phosphate is dissolved in water at about pH 8.
Quercetin-3′-O-methylphosphonate (Compound 2) is dissolved in water at about pH 8.

[5] = following four weeks of daily treatment

## O=c1c(O)c(-c2ccc(O)c(OCP(=O)(O)O)c2)oc2cc(O)cc(O)c12 [Compound 2, Quercetin-3′-O-methylphosphonic acid]
ZDF rats; TUNEL, following four weeks of daily treatment
  islet cell apoptosis: decreases in islet cell apoptosis
ZDF rats; [5]
  decrease in islet vacuolar degeneration (inhibition): 43%
  decrease in pancreatic inflammation (inhibition): 60%
ZDF rats; insulin immunohistochemistry
  ratio of insulin positive islet cells to pancreas cells: significantly increased
Male ZDF rats; 4 weeks daily i.p., compared to vehicle treated animals
  plasma insulin levels: require lower insulin levels to maintain nomal glucose levels
Male ZDF rats; 4 weeks daily i.p., compound 2 100 mg/kg, compound 3 100 mg/kg day 4 and 5, 50 mg/kg day 6-28, rosiglitazone 6 mg/kg
  plasma glucose levels: maintains steady glucose levels
Male ZDF rats; compared to vehicle treated animals
  glycated hemoglobin levels (% HbA1c) at termination: lower glycated hemoglobin levels
Male ZDF rats; day 14 and day 21, over vehicle controls
  triglycerides: marked decreases in triglycerides
[1]
  vacuolation of kidney tissue: no vacuoles
AdenosineA1
  antagonist activity in the AdenosineA1 assay: 48%
[2]
  blood glucose level (tacrolimus induced hyperglycemia): attenuate tacrolimus induced hyperglycemia
[3]
  cell associated ^3H-cyclosporin uptake, % of control: 54 % of control
[4]
  degradation seen by NMR: no degradation
